The numbers were not newly measured in patent US6649645B1 (Pharmacia Corporation, priority 1998, dated 2003), which cites them from elsewhere.

The structures appear in SMILES notation.

Series [1] relates to fibroblast growth factor-induced corneal angiogenesis. As to conditions: rats; Masferrer et al. 1999.
Series [2] relates to tumor.
The conditions of series [3]: Cynomolgus monkeys, orally for six weeks.
[4] abbreviates: mice, Milas et al., Cancer Res. 1990.

In the case of `Cc1ccc(-c2cc(C(F)(F)F)nn2-c2ccc(S(N)(=O)=O)cc2)cc1` [Celecoxib, Benzenesulfonamide, 4-(5-(4-methylphenyl)-3-(trifluoromethyl)-1H-pyrazol-1-yl)-], in series [1], the “inhibition of fibroblast growth factor-induced corneal angiogenesis” value was “potent inhibition”.
On to `COc1ccc2c(c1)c(CC(=O)O)c(C)n2C(=O)c1ccc(Cl)cc1` [indomethacin], for which, in series [2] (setting [4]), the “tumor cure rate after radiotherapy” value is listed as “increases the tumor cure rate” and the “tumor growth delay after radiotherapy” value was “prolongs tumor growth delay”. Moreover, the “enhancement factor (tumor curability)” value in series [2] (printed as 'radiation alone') was 1.26. Moreover, the “enhancement factor (tumor growth delay)” value in series [2] (radiation-indomethacin) was 1.4.
Regarding `CN1C(C(=O)Nc2ccccn2)=C(O)c2sc(Cl)cc2S1(=O)=O` [lornoxicam], the Toxicity in series [3] is 1 to 2 mg/kg/day.
